# Data: article PMC6270420, “Antibacterial Activity of Salicylanilide 4-(Trifluoromethyl)benzoates” (Molecules, 2013)
# Read-outs that look alike come from different tables or passages of the source.
# Experiments:
# Mtb. 7357/1988 = test: microbe, parasite or virus in culture; assay type: cell-based; settings: Mycobacterium tuberculosis, read-out: MIC Mtb. 7357/1988
# [1] = system: Mycobacterium avium 330/88; test: Antimycobacterial MIC micromethod; assay type: cell-based
# [2] = system: Mycobacterium tuberculosis 331/88 (H37Rv); test: Antimycobacterial MIC micromethod, Šula's medium; assay type: cell-based; settings: read-out: MIC Mtb. 331/88
# [3] = system: Mycobacterium kansasii 235/80; test: Antimycobacterial MIC micromethod; assay type: cell-based; settings: read-out: MIC M. kansasii 235/80
# HepG2 cells = test: Cytotoxicity evaluation (CellTiter 96 MTS); assay type: cell-based, human; settings: read-out: IC50 HepG2
# Protocol: Seven esters and their parent salicylanilides with the most robust antimicrobial activity were tested for cytotoxicity in the human hepatocellular liver carcinoma cell line HepG2 (passages 21–24; ECACC, Salisbury, UK) using a standard colorimetric method measuring a tetrazolium salt reduction (CellTiter(R) 96 AQueous One Solution Assay, Promega G3580, Madison, WI, USA).
# The cells were routinely cultured in Minimum Essentials Eagle Medium (Sigma-Aldrich, Darmstadt, Germany) supplemented with 10% foetal bovine serum (PAA; Biotech, Prague, Czech Republic), 1% of L-glutamine solution (Sigma-Aldrich), and non-essential amino acids solution (Sigma-Aldrich) in a humidified atmosphere containing 5% CO2 at 37 °C. For subculturing, the cells were harvested after trypsin/EDTA (Sigma-Aldrich) treatment at 37 °C. The cells treated with the tested substances were used as experimental groups. Untreated HepG2 cells were used as control groups.
# The cells were seeded in density 1 × 10^4 cells per well in a 96-well plate with microscopic control. Next day, the cells were treated with each of the tested substances. […] The most of the tested compounds were prepared in incubation concentrations of 0.01–20 µM in triplicates. 4-(Trifluoromethyl)benzoic acid was applied in the concentrations of 10–4,000 µM in triplicates. The following types of controls were included: determination of 100% viability and 0% viability (the cells treated by 10% DMSO), no cell control and vehiculum controls. These checking samples were prepared in triplicates.
# The treated cells were incubated together with controls at 37 °C for 24 h in 5% CO2 atmosphere. After this time reagent from the kit CellTiter 96 AQueous One Solution Cell Proliferation Assay was added. The CellTiter 96 assay is based on the reduction of tetrazolium salt MTS [3-(4,5-dimethylthiazol-2-yl)-5-(3-carboxymethoxyphenyl)-2-(4-sulfophenyl)-2H-tetrazolium] to water-soluble formazan dye by metabolically active cells. The reduction of the reagent is attributed to availability of NADH or NADPH. The decline in levels of these metabolically important compounds in the cell causes that the production of formazan is reduced. The tested plate was incubated for 2 h at 37 °C and 5% CO2 and after this time, the absorbance was recorded at 490 nm using a 96-well plate reader (TECAN, Infinite M200, Grödig, Austria).
# The results were expressed as inhibitory concentration which is necessary to inhibit cell viability to 50% from the maximal (control) viability (IC50). A standard toxicological parameter IC50 was calculated in each of the tested substances using GraphPad Prism software (version 5.02; GraphPad Software Inc., San Diego, CA, USA).
# [4] = molecular target: T1, mycobacterial isocitrate lyase (ICL1, Rv0467) (Mycobacterium tuberculosis, UniProt P9WKK7); test: Isocitrate lyase inhibition assay (ICL1); assay type: biochemical, Mycobacterium tuberculosis H37Rv; settings: 10 μmol/L; read-out: % ICL inhibition at 10 μmol/L (± standard deviation)
# T1 construct: His tag (from pET-28b(+)); made in house; host or cells: E. coli BL21(DE3), pET-28b(+) plasmid
# T1 sequence (P9WKK7 1-428): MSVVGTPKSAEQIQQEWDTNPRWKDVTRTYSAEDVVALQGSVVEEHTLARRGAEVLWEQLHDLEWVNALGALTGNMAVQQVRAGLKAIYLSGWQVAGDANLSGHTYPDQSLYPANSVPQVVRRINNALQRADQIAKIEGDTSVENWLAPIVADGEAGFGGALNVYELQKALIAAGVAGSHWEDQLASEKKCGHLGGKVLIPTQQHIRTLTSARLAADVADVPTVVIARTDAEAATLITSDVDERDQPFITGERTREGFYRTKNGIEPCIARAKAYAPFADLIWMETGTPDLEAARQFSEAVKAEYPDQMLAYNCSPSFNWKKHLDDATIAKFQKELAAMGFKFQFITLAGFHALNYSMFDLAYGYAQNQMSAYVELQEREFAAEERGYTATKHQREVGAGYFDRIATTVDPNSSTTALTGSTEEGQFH
# Mtb. 53/2009 = test: microbe, parasite or virus in culture; assay type: cell-based; settings: Mycobacterium tuberculosis, read-out: MIC Mtb. 53/2009
# [5] = system: M. kansasii 6509/96 (clinically isolated strain); test: Antimycobacterial MIC micromethod; assay type: cell-based; settings: Mycobacterium kansasii, read-out: MIC M. kansasii 6509/96
# Mtb. Praha 1 = test: microbe, parasite or virus in culture; assay type: cell-based; settings: Mycobacterium tuberculosis, read-out: MIC Mtb. Praha 1
# Mtb. Praha 131 (XDR-TB) = test: microbe, parasite or virus in culture; assay type: cell-based; settings: Mycobacterium tuberculosis, read-out: MIC Mtb. Praha 131 (XDR-TB)
# Mtb. 234/2005 = test: microbe, parasite or virus in culture; assay type: cell-based; settings: Mycobacterium tuberculosis, read-out: MIC Mtb. 234/2005
# Mtb. 9449/2006 = test: microbe, parasite or virus in culture; assay type: cell-based; settings: Mycobacterium tuberculosis, read-out: MIC Mtb. 9449/2006
# [6] = system: Staphylococcus aureus CCM 4516/08; test: Antibacterial microdilution broth method; assay type: cell-based; settings: read-out: MIC/IC90 S. aureus CCM 4516/08
# Protocol: (§1) The in vitro antibacterial activity was assayed against eight Gram-positive and Gram-negative strains: Staphylococcus aureus CCM 4516/08, methicillin-resistant Staphylococcus aureus H 5996/08 (MRSA), Staphylococcus epidermidis H 6966/08, Enterococcus sp. J 14365/08; Escherichia coli CCM 4517, Klebsiella pneumoniae D 11750/08, ESBL-positive Klebsiella pneumoniae J 14368/08, and Pseudomonas aeruginosa CCM 1961.
# (§2) The microdilution broth method modified according to standard M07-A07 in Mueller-Hinton broth (HiMedia Laboratories, Mumbai, India) adjusted to pH 7.4 (±0.2) was used. The tested compounds were dissolved in DMSO to the final concentrations ranging from […]. Benzylpenicillin (penicillin G) was used as a comparative drug. Bacterial inoculum in sterile water was prepared to match 0.5 McFarland scale ([…]). The minimum inhibitory concentrations were assayed as 90% (IC90) or higher reduction of growth when compared to the control. The determination of results was performed visually and spectrophotometrically (at 540 nm). The values of MICs were determined after 24 and 48 h of incubation in the darkness at 35 °C (±0.1) in a humid atmosphere.
# [7] = system: Enterococcus sp. J 14365/08; test: Antibacterial microdilution broth method; assay type: cell-based; settings: read-out: MIC/IC90 Enterococcus sp. J 14365/08
# Protocol: as §1, §2
# [8] = system: Staphylococcus epidermidis H 6966/08; test: Antibacterial microdilution broth method; assay type: cell-based; settings: read-out: MIC/IC90 S. epidermidis H 6966/08
# Protocol: as §1, §2
# [9] = system: methicillin-resistant Staphylococcus aureus H 5996/08 (MRSA); test: Antibacterial microdilution broth method; assay type: cell-based; settings: read-out: MIC/IC90 MRSA H 5996/08
# Protocol: as §1, §2
# [10] = system: Escherichia coli CCM 4517; test: Antibacterial microdilution broth method; assay type: cell-based; settings: read-out: MIC/IC90 E. coli CCM 4517
# Protocol: as §1, §2
Compound,MIC (Mtb. 7357/1988; 336 h),MIC (Mtb. 7357/1988; 504 h),"MIC ([1]; 330/88, 336 h, 14 d)","MIC ([1]; 330/88, 504 h, 21 d)","MIC ([2]; 336 h, 14 d)","MIC ([2]; 504 h, 21 d)","MIC ([3]; 235/80, 168 h, 7 d)","MIC ([3]; 235/80, 336 h, 14 d)","MIC ([3]; 235/80, 504 h, 21 d)",inhibition at 10 µM [4],MIC (Mtb. 53/2009; 336 h),MIC (Mtb. 53/2009; 504 h),"MIC ([5]; 168 h, 7 d)","MIC ([5]; 336 h, 14 d)","MIC ([5]; 504 h, 21 d)",MIC (Mtb. Praha 1; 336 h),MIC (Mtb. Praha 1; 504 h),MIC (Mtb. Praha 131 (XDR-TB); 336 h),MIC (Mtb. Praha 131 (XDR-TB); 504 h),MIC (Mtb. 234/2005; 336 h),also measured
O=C(Oc1cc(Cl)ccc1C(=O)Nc1ccc(Cl)c(Cl)c1)c1ccc(C(F)(F)F)cc1 [1f],2 µM,2 µM,2 µM,8 µM,1 µM,2 µM,1 µM,2 µM,4 µM,17 ± 1.6%,2 µM,2 µM,1 µM,2 µM,4 µM,1 µM,2 µM,1 µM,2 µM,1 µM,"IC50 (HepG2 cells; Homo sapiens, HepG2, 24 h): 4.46 µM; MIC (Mtb. 234/2005; 504 h): 2 µM; MIC (Mtb. 9449/2006; 336 h): 2 µM; MIC (Mtb. 9449/2006; 504 h): 2 µM"
O=C(Oc1ccc(Cl)cc1C(=O)Nc1ccc(Br)cc1)c1ccc(C(F)(F)F)cc1 [1i],2 µM,4 µM,8 µM,8 µM,2 µM,2 µM,1 µM,4 µM,8 µM,18 ± 1.2%,4 µM,4 µM,2 µM,8 µM,8 µM,2 µM,2 µM,2 µM,2 µM,2 µM,MIC (Mtb. 234/2005; 504 h): 2 µM; MIC (Mtb. 9449/2006; 336 h): 2 µM; MIC (Mtb. 9449/2006; 504 h): 4 µM
O=C(Oc1ccc(Cl)cc1C(=O)Nc1ccc(F)cc1)c1ccc(C(F)(F)F)cc1 [1m],,,16 µM,32 µM,8 µM,8 µM,4 µM,16 µM,16 µM,≥ 20%,,,8 µM,16 µM,16 µM,,,,,,"MIC ([6]; CCM4516, 24 h): 7.81 µM; MIC ([6]; CCM4516, 48 h): 7.81 µM; MIC ([7]; SP.J14365/08, 24 h): 500 µM; MIC ([7]; SP.J14365/08, 48 h): > 500 µM; MIC ([8]; H6966/08, 24 h): 31.2 µM; MIC ([8]; H6966/08, 48 h): > 500 µM; MIC ([9]; 24 h): 15.6 µM; MIC ([9]; 48 h): 15.6 µM; MIC ([10]; CCM4517, 24 h): > 500 µM; MIC ([10]; CCM4517, 48 h): > 500 µM"
"CC1(C)S[C@@H]2[C@H](NC(=O)Cc3ccccc3)C(=O)N2[C@H]1C(=O)O [PNC, benzylpenicillin, reference compound]",,,,,,,,,,,,,,,,,,,,,"MIC ([6]; CCM4516, 24 h): 0.98 µM; MIC ([6]; CCM4516, 48 h): 0.98 µM; MIC ([7]; SP.J14365/08, 24 h): 7.81 µM; MIC ([7]; SP.J14365/08, 48 h): 15.6 µM; MIC ([8]; H6966/08, 24 h): 250 µM; MIC ([8]; H6966/08, 48 h): 250 µM; MIC ([9]; 24 h): 62.5 µM; MIC ([9]; 48 h): 125 µM; MIC ([10]; CCM4517, 24 h): > 500 µM; MIC ([10]; CCM4517, 48 h): > 500 µM"
O=C(Nc1ccc(Cl)c(Cl)c1)c1cc(Cl)ccc1O [SAL-1],,,,,,,,,,,,,,,,,,,,,"IC50 (HepG2 cells; 24 h, cytotoxicity): 0.84 µM"
